# Experimental data reported in patent publication US12447153B2, “HER2 mutation inhibitors” (Array BioPharma Inc., priority 2021, dated 2025).
# pIC50: −log10 of the molar value.
# Assays:
# [1] = target: ErbB2 with Exon 20 YVMA insertion (HER2-YVMA) (Homo sapiens (Human), UniProt P04626, INS775YVMA); test: Cellular Phosphorylation Assay, Assay 4 (constitutive ErbB2 phosphorylation, NIH 3T3 cells); format: cell-based
# Protocol: (§1) NIH 3T3 cells were engineered to express ErbB2 with Exon 20 YVMA insertion (HER2-YVMA (SEQ ID NO: 2); Assay 4) or EGFR wild type (EGFR WT; Assay 5) with constructs obtained from GenScript and grown in DMEM supplemented with 10% fetal bovine serum and 15 μg/ml blasticidin. […] Serially diluted compounds were added to the plates for 1 hour at 37° C./5% CO2. EGFR WT cells were stimulated with 100 ng/ml rEGF for an additional 10 minutes at 37° C./5% CO2.
# (§2) After compound incubation, medium was removed from the cells, which were then fixed in 3.7% formaldehyde in PBS at room temperature for 20 minutes. Following a wash with PBS, cells were permeabilized with 100% methanol at room temperature for 10 minutes. Cells were then washed with PBS/0.05% Tween-20 and blocked with Odyssey blocking buffer (LI-COR Biosciences) for at least 1 hour at room temperature. Antibodies to phosphorylated ErbB2 (Y1196, Cell Signaling #6942) or phosphorylated EGFR (Y1068, Cell Signaling #3777) and GAPDH (Millipore #MAB374) were added to the cells in blocking buffer containing 0.05% azide and incubated overnight at 4° C. After washing with PBS/0.05% Tween-20, the cells were incubated with fluorescently labeled secondary anti-rabbit antibody (LiCOR, IRDye 800CW #926-32211) and anti-mouse antibody (Molecular Probes, Alexa Fluor 680 #A21058) for 1 hour at room temperature in the dark. Cells were then washed and analyzed for fluorescence at both wavelengths using the Odyssey Infrared Imaging System (LI-COR Biosciences). Phosphorylated ErbB2 and EGFR signal was normalized to GAPDH signal to generate curves and calculate IC50 values.
# EGFR wild type (EGFR WT) = EGFR wild type (EGFR WT) (Homo sapiens (Human), UniProt P00533); test: Cellular Phosphorylation Assay, Assay 5 (EGF-stimulated EGFR phosphorylation, NIH 3T3 cells); format: cell-based
# Sequence of EGFR wild type (EGFR WT) (P00533 25-1210): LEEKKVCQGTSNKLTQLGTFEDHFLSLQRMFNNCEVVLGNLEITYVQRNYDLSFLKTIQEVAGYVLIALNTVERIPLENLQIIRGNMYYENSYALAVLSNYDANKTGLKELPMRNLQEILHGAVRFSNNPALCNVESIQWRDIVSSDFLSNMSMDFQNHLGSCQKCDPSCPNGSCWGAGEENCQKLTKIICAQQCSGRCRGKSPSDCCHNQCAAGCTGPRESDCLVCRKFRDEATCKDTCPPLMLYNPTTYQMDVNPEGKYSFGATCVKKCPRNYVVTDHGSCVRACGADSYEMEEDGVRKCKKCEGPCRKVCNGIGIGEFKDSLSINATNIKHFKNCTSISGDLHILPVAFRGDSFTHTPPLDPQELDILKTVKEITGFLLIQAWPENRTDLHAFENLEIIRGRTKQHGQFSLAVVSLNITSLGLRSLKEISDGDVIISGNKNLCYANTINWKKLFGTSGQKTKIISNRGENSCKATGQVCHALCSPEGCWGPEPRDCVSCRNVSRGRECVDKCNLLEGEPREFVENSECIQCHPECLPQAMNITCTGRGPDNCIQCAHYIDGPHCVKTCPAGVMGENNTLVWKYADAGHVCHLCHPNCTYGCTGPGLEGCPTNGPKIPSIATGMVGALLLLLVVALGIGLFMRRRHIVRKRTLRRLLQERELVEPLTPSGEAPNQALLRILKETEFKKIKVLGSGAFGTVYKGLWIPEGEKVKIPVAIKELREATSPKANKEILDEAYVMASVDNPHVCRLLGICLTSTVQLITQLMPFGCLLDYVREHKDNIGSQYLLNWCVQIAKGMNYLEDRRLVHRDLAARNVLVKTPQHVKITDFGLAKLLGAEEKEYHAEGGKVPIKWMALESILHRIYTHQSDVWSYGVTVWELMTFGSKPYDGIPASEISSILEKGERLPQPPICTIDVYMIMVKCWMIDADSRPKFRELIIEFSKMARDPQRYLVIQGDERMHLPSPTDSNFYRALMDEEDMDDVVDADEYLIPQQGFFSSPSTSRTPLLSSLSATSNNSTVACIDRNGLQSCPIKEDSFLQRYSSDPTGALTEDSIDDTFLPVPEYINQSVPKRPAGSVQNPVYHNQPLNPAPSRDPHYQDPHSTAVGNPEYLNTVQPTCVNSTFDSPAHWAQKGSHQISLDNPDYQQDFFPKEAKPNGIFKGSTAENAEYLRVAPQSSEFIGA
# Protocol: as §1, §2
# EGFR = EGFR (Homo sapiens (Human), UniProt P00533); test: ErbB Enzyme Assay (HTRF KinEASE-TK), Assay 3; format: biochemical
# Sequence of EGFR (P00533 25-1210): as above
# Protocol: The kinases were incubated with 250 nM TK-substrate biotin (CisBio, part of cat #62TKOPEC) at 1 mM ATP along with test compounds in a buffer consisting of 25 mM HEPES, pH 7.4, 10 mM MgCl2, 0.01% Triton X-100, and 2% DMSO in a volume of 8 μL. […] After 30-minute incubation at 22° C., the reaction was quenched by adding 8 μL of quench solution containing 62.5 nM Sa-XL665 and 0.25×TK-Ab-Cryptate in HTRF detection buffer (all from CisBio, part of cat #62TKOPEC). […] A 4-parameter logistic curve was fit to the POC values as a function of the concentration of compound, and the IC50 value was the point where the best-fit curve crossed 50 POC.
# ErbB2 WT = ErbB2 WT (Homo sapiens (Human), UniProt P04626); test: ErbB Enzyme Assay (HTRF KinEASE-TK), Assay 2; format: biochemical
# Sequence of ErbB2 WT (P04626 23-1255): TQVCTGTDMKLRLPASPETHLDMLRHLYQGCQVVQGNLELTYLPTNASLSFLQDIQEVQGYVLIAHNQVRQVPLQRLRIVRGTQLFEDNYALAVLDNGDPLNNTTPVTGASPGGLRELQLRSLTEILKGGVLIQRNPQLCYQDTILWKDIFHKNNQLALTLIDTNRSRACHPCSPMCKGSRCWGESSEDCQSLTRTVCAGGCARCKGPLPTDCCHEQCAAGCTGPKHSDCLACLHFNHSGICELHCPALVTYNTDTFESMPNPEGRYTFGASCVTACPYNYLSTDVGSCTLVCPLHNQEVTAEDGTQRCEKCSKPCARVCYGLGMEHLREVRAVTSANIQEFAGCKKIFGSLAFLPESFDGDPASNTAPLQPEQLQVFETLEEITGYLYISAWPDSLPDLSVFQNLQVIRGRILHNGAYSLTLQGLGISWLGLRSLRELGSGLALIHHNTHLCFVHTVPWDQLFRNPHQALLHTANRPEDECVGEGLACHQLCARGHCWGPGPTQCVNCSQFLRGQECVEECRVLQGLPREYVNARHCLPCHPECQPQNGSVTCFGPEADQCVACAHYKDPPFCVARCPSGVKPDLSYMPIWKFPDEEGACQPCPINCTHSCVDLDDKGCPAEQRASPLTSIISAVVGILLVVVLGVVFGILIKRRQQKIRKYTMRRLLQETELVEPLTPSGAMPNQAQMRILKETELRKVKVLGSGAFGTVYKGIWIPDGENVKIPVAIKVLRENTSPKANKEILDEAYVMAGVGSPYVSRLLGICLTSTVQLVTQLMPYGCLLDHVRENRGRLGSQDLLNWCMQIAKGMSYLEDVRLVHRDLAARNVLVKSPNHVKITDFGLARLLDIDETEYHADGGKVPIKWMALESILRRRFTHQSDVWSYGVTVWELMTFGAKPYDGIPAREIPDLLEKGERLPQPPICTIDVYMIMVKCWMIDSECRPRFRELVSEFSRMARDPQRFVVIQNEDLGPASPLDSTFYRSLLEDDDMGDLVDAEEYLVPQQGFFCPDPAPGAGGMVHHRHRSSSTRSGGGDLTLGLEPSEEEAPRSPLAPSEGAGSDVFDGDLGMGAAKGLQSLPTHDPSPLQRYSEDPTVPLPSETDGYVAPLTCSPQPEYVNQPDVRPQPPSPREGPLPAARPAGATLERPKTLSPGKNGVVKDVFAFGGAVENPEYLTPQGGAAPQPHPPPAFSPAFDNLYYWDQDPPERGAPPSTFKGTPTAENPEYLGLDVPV
# Protocol: The kinases were incubated with 250 nM TK-substrate biotin (CisBio, part of cat #62TKOPEC) at 1 mM ATP along with test compounds in a buffer consisting of 25 mM HEPES, pH 7.4, 10 mM MgCl2, 0.01% Triton X-100, and 2% DMSO in a volume of 8 μL. […] After 30-minute incubation at 22° C., the reaction was quenched by adding 8 μL of quench solution containing 62.5 nM Sa-XL665 and 0.25×TK-Ab-Cryptate in HTRF detection buffer (all from CisBio, part of cat #62TKOPEC).
# [2] = EGF-stimulated EGFR WT phosphorylation
# [3] = cellular ErbB2 YVMA phosphorylation
# [4] = cellular EGFR WT phosphorylation, EGF-stimulated
# Sequence of ErbB2 with Exon 20 YVMA insertion (HER2-YVMA) (P04626 other isoform, or with tags, fused parts or gaps ins YVMA behind 775): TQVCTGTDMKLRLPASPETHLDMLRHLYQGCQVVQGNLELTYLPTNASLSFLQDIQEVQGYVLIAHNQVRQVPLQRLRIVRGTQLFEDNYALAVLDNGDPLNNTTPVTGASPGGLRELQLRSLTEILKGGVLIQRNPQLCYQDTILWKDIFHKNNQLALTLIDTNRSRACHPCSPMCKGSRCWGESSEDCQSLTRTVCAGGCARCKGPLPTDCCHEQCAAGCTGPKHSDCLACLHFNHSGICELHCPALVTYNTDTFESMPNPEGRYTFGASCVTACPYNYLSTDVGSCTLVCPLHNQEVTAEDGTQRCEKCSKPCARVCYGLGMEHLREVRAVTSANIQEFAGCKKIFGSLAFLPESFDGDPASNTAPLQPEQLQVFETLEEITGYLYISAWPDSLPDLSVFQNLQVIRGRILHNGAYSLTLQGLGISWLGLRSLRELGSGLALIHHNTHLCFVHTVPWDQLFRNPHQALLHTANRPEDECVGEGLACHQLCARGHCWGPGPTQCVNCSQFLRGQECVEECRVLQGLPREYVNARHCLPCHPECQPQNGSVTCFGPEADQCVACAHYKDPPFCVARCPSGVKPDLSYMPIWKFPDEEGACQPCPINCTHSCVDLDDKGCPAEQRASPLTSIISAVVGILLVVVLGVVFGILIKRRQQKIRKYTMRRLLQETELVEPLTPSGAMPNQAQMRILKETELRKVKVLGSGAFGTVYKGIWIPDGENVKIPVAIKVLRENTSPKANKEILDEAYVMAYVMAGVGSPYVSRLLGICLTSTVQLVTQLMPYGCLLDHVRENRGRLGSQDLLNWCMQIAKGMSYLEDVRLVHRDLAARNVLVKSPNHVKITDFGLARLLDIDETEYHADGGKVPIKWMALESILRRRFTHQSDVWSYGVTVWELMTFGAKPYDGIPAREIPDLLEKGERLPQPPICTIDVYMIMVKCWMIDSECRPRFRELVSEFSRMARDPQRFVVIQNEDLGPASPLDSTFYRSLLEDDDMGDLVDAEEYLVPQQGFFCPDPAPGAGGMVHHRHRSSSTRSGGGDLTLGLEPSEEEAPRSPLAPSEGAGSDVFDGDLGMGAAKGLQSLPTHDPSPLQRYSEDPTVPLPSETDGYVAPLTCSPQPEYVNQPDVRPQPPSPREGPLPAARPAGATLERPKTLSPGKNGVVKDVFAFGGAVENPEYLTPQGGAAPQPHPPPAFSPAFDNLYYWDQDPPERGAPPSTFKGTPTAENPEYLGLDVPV
SMILES,pIC50 ([1]; ErbB2 YVMA phosphorylation),pIC50 (EGFR wild type (EGFR WT); [2]),pIC50 (EGFR; EGFR enzyme),pIC50 (ErbB2 WT; ErbB2 WT enzyme),"pIC50 [1, 3]",pIC50 (EGFR wild type (EGFR WT); [4]),pIC50 (EGFR; EGFR enzyme assay),pIC50 (ErbB2 WT; ErbB2 WT enzyme assay)
"C=CC(=O)N1C[C@H]2CC[C@@H](C1)[C@@H]2c1ccc2ncnc(Nc3ccc(Oc4ccn5ncnc5c4)c(C)c3)c2n1 [Example 221, 1-((1R,5S,8r)-8-(4-((4-([1,2,4]triazolo[1,5-a]pyridin-7-yloxy)-3-methylphenyl)amino)pyrido[3,2-d]pyrimidin-6-yl)-3-azabicyclo[3.2.1]octan-3-yl)prop-2-en-1-one]",7.11,≤ 5.30,5.57,7.55,,,,
"C=CC(=O)N1CCN(c2ccc3ncnc(Nc4ccc(Oc5ccc6c(c5)ncn6C)c(C)c4F)c3n2)CCC1(C)C [Example 68, 1-(4-(4-((2-fluoro-3-methyl-4-((1-methyl-1H-benzo[d]imidazol-5-yl)oxy)phenyl)amino)pyrido[3,2-d]pyrimidin-6-yl)-7,7-dimethyl-1,4-diazepan-1-yl)prop-2-en-1-one]",7.13,≤ 5.30,≤ 5.00,6.18,,,,
"C=CC(=O)N1CCN(c2nc3c(Nc4ccc(Oc5ccn6ncnc6c5)c(C)c4F)ncnc3cc2Cl)CC1(C)C [Example 160, 1-(4-(4-((4-([1,2,4]triazolo[1,5-a]pyridin-7-yloxy)-2-fluoro-3-methylphenyl)amino)-7-chloropyrido[3,2-d]pyrimidin-6-yl)-2,2-dimethylpiperazin-1-yl)prop-2-en-1-one]",6.78,≤ 5.30,≤ 5.00,6.29,,,,
"C=CC(=O)N1CC[C@@H]2CN(c3nc4c(Nc5ccc(Oc6ccn7ncnc7c6)c(C)c5F)ncnc4cc3OC)C[C@@H]21 [Example 154, 1-((3aR,6aR)-5-(4-((4-([1,2,4]triazolo[1,5-a]pyridin-7-yloxy)-2-fluoro-3-methylphenyl)amino)-7-methoxypyrido[3,2-d]pyrimidin-6-yl)hexahydropyrrolo[3,4-d]pyrrol-1(2H)-yl)prop-2-en-1-one]",7.17,5.51,6.35,7.74,,,,
"C=CC(=O)N1C[C@H]2CC[C@@H]1C[C@@H]2c1ccc2ncnc(Nc3ccc(Oc4ccn5ncnc5c4)c(C)c3F)c2n1 (single isomer, unassigned) [Example 234]",7.48,6.06,6.02,7.43,,,,
C=CC(=O)N1CCN(c2ccc3ncnc(Nc4ccc(Oc5ccc6c(c5)ncn6C)c(C)c4F)c3n2)C[C@H]1C(C)C [Example 253],,,,,7.51,≤ 5.30,≤ 5.00,6.79
"C=CC(=O)N1CCN(c2nc3c(Nc4ccc(Oc5ccn6ncnc6c5)c(C)c4F)ncnc3cc2Cl)C[C@@H]1C [Example 149, (S)-1-(4-(4-((4-([1,2,4]triazolo[1,5-a]pyridin-7-yloxy)-2-fluoro-3-methylphenyl)amino)-7-chloropyrido[3,2-d]pyrimidin-6-yl)-2-methylpiperazin-1-yl)prop-2-en-1-one]",6.72,≤ 5.30,5.17,6.49,,,,
"Cc1c(Oc2ccn3ncnc3c2)ccc(Nc2ncnc3ccc(N4CCN(C(=O)C56CC5C6)C(C)(C)C4)nc23)c1F (stereo not drawn) [Example 186, (4-(4-((4-([1,2,4]triazolo[1,5-a]pyridin-7-yloxy)-2-fluoro-3-methylphenyl)amino)pyrido[3,2-d]pyrimidin-6-yl)-2,2-dimethylpiperazin-1-yl)(bicyclo[1.1.0]butan-1-yl)methanone]",6.39,≤ 5.30,,7.16,,,,
C=CC(=O)N1CCN(c2ccc3ncnc(Nc4ccc(Oc5cc(F)c6c(c5)ncn6C)c(C)c4)c3n2)C[C@@H]1C1CC1 (racemic) [Example 278],,,,,7.74,5.74,5.18,7.26
"CC#CC(=O)N1CCC[C@@H](c2ccc3ncnc(Nc4ccc(Oc5ccn6ncnc6c5)c(C)c4F)c3n2)CC1 (single isomer, unassigned) [Example 211]",6.50,≤ 5.30,5.27,7.18,,,,
"C=CC(=O)N1CCN(c2nc3c(Nc4ccc(Oc5ccn6ncnc6c5)c(Cl)c4F)ncnc3cc2OC)CC1 [Example 148, 1-(4-(4-((4-([1,2,4]triazolo[1,5-a]pyridin-7-yloxy)-3-chloro-2-fluorophenyl)amino)-7-methoxypyrido[3,2-d]pyrimidin-6-yl)piperazin-1-yl)prop-2-en-1-one]",8.36,7.16,7.79,9.22,,,,
C=CC(=O)N1CCN(c2ccc3ncnc(Nc4ccc(Oc5ccn6ncnc6c5)c(C)c4F)c3n2)C[C@@H]1C(C)C [Example 266],,,,,7.04,≤ 5.30,≤ 5.00,6.75
"C=CC(=O)Nc1ccc2ncnc(Nc3ccc(Oc4ccc5c(c4)ncn5C)c(C)c3)c2n1 [Example 18, N-(4-((3-methyl-4-((1-methyl-1H-benzo[d]imidazol-5-yl)oxy)phenyl)amino)pyrido[3,2-d]pyrimidin-6-yl)acrylamide]",6.35,,6.43,7.37,,,,
"C=CS(=O)(=O)N(C)c1ccc2ncnc(Nc3ccc(Oc4ccc5c(c4)ncn5C)c(C)c3)c2n1 [Example 21, N-methyl-N-(4-((3-methyl-4-((1-methyl-1H-benzo[d]imidazol-5-yl)oxy)phenyl)amino)pyrido[3,2-d]pyrimidin-6-yl)ethenesulfonamide]",6.60,,6.33,7.08,,,,
"CC#CC(=O)Nc1ccc2ncnc(Nc3ccc(Oc4ccc5c(c4)ncn5C)c(C)c3)c2n1 [Example 19, N-(4-((3-methyl-4-((1-methyl-1H-benzo[d]imidazol-5-yl)oxy)phenyl)amino)pyrido[3,2-d]pyrimidin-6-yl)but-2-ynamide]",7.06,,6.69,7.75,,,,

# Further lines, results first:
pIC50 ([1]; ErbB2 YVMA phosphorylation),pIC50 (EGFR wild type (EGFR WT); [2]),pIC50 (EGFR; EGFR enzyme),pIC50 (ErbB2 WT; ErbB2 WT enzyme),"pIC50 [1, 3]",pIC50 (EGFR wild type (EGFR WT); [4]),pIC50 (EGFR; EGFR enzyme assay),pIC50 (ErbB2 WT; ErbB2 WT enzyme assay),SMILES
,,,,7.35,≤ 5.30,≤ 5.00,6.39,C=CC(=O)N1C[C@H]2CC[C@@H]1[C@H](c1ccc3ncnc(Nc4cc(C)c(Oc5cnc6c(c5)ncn6C)cc4F)c3n1)C2 [Example 424]
,,,,7.28,≤ 5.30,≤ 5.00,7.10,C=CC(=O)N1[C@@H](C)CC(c2ccc3ncnc(Nc4ccc(Oc5ccc6c(c5)ncn6C)c(C)c4F)c3n2)C[C@@H]1C (mixture of isomers) [Example 313]
,,,,7.52,5.90,5.66,7.17,C=CC(=O)N1C[C@@H]2C[C@H](c3ccc4ncnc(Nc5cc(C)c(Oc6ccn7ncnc7c6)cc5F)c4n3)C[C@H]1C2 [Example 390]
,,,,7.15,≤ 5.30,≤ 5.00,5.63,C=CC(=O)N1C[C@H]2CC[C@@H]1CN2c1ccc2ncnc(Nc3cc(C)c(Oc4cnc5c(c4)ncn5C)cc3F)c2n1 [Example 367]
,,,,7.78,6.62,6.33,7.75,C=CC(=O)N1CCN(c2ccc3ncnc(Nc4cc(Cl)c(Oc5ccn6ncnc6c5)cc4F)c3n2)CC1C(F)F (stereo not drawn) [Example 365]
,,,,7.21,≤ 5.30,≤ 5.00,6.84,C=CC(=O)N1CC[C@H](c2ccc3ncnc(Nc4ccc(Oc5cc(F)c6c(c5)ncn6C)c(C)c4)c3n2)CC1(C)C (racemic) [Example 279]
,,,,7.17,≤ 5.30,≤ 5.00,7.60,C=CC(=O)N1CCN(c2ccc3ncnc(Nc4cc(C)c(Oc5ccn6ncnc6c5)cc4F)c3n2)C[C@@H]1C1CC1 [Example 284]
,,,,7.13,5.85,,6.99,CC#CC(=O)N1C[C@@H]2CC[C@H]1CN2c1ccc2ncnc(Nc3ccc(Oc4ccn5ncnc5c4)c(C)c3F)c2n1 [Example 329]
